Measured values reported in patent publication US9453026B2, “ACC inhibitors and uses thereof” (Gilead Apollo, Inc., priority 2011, dated 2016).

Target: ACC2 (Homo sapiens, UniProt O00763)
Assay: In vitro ACC2 inhibition assay (ADP-Glo)
Format: biochemical
Details: read-out: ACC2
Procedure: An exemplary procedure for the in vitro ACC inhibition assay, which can be used to determine the inhibitory action of compounds of the invention toward either ACC1 or ACC2, follows. The ADP-Glo™ Kinase Assay kit from Promega was used. The ADP-Glo™ Kinase Assay is a luminescent ADP detection assay to measure enzymatic activity by quantifying the amount of ADP produced during an enzyme reaction. The assay is performed in two steps; first, after the enzyme reaction, an equal volume of ADP-Glo™ Reagent is added to terminate the reaction and deplete the remaining ATP. Second, the Kinase Detection Reagent is added to simultaneously convert ADP to ATP and allow the newly synthesized ATP to be measured using a luciferase/luciferin reaction. Luminescence can be correlated to ADP concentrations by using an ATP-to-ADP conversion curve. The detailed procedure is as follows. 50 μL of the compound being tested (600 uM in DMSO) was added to a 384-well dilution plate. The compound was diluted 1:3 in succession in DMSO for each row for 11 wells. 0.5 μL ACC2 working solution was added to 384-well white Optiplate assay plate. 0.5 μL diluted compound solution in each column from step 2 to assay plate, each row containing 2 replicates. […] The plates were incubated at room temperature for 15 minutes. 5 μL substrate working solution was added to each well to initiate reaction. […] Plates were incubated at room temperature for 60 minutes. 10 μL ADP glo reagent was added. Plates were incubated at room temperature for 40 minutes. 20 μL kinase detection reagent was added.
Data for each concentration, as well as the positive and negative controls were averaged, and the standard deviation calculated. Percent inhibition was calculated by the formula: 100× (average negative control−compound)/(average negative control−average positive control). The IC50 for each compound was calculated by fitting the data with a non-linear regression equation: Y=Bottom+(Top-Bottom)/(1+10^((Log IC50−X)*HillSlope)), where X is the log of compound concentration and Y is percent inhibition.
The compound numbers correspond to the compound numbers in Table 1.

Sequence of ACC2 (O00763 whole entry, species assumed): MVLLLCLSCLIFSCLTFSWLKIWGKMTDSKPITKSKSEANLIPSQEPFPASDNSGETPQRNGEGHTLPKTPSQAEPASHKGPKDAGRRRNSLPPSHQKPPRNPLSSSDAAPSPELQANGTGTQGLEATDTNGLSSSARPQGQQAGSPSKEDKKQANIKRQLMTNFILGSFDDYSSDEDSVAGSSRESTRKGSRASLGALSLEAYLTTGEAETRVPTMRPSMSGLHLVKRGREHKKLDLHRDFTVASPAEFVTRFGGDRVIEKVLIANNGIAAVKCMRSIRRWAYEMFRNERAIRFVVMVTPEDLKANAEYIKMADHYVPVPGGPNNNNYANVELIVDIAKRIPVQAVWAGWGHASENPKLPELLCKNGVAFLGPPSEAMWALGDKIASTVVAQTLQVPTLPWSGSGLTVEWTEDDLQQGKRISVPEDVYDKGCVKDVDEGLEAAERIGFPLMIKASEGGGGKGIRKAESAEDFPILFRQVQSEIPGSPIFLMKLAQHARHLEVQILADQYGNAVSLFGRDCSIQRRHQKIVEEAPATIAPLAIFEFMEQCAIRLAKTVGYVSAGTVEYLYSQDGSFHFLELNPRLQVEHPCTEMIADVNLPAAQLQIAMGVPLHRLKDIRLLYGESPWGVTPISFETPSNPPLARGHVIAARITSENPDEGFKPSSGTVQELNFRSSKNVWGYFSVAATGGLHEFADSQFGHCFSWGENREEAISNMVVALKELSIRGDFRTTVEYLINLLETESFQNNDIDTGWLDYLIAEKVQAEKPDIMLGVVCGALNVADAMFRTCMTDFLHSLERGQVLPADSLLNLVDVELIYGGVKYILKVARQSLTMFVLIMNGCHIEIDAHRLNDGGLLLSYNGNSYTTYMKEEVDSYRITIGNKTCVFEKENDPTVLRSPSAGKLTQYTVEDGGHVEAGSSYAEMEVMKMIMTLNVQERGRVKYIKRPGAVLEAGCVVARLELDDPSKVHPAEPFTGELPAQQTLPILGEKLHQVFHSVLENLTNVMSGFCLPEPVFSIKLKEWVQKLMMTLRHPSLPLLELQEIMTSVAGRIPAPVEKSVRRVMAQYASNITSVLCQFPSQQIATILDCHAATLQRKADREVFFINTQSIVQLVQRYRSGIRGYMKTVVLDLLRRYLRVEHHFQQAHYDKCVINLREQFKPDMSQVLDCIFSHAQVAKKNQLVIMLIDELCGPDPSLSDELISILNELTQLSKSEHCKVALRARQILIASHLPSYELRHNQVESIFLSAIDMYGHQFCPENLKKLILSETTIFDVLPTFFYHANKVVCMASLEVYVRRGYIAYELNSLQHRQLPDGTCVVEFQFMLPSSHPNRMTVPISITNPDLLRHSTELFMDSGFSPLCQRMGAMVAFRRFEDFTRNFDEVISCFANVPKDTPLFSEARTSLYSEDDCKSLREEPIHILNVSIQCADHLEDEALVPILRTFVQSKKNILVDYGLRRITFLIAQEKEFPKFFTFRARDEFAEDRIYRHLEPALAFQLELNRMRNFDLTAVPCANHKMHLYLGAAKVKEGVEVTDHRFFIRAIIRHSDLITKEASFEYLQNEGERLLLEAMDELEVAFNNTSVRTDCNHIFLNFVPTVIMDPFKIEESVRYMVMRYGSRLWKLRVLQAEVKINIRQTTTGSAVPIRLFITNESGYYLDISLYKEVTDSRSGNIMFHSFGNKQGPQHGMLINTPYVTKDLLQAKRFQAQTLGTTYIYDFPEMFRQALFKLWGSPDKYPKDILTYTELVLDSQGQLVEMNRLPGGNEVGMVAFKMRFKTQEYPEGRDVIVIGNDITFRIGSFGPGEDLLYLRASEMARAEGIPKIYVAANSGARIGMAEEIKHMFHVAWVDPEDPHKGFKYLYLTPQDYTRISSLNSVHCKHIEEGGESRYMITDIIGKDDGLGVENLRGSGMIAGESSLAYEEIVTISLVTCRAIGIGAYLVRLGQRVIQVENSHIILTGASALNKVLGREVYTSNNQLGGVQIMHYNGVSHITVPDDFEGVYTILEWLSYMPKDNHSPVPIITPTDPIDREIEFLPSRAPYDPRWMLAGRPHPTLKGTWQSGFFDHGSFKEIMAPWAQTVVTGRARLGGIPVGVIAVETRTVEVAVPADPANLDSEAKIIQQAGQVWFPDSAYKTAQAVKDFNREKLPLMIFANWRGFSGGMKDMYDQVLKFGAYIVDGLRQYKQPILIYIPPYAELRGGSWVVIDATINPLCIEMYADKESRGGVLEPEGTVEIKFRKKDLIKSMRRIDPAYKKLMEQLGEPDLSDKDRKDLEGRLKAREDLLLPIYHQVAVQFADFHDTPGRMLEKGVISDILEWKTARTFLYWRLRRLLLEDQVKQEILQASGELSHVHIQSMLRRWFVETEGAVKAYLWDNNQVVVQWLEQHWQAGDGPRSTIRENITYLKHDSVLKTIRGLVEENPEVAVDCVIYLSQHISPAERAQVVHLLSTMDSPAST

Structure (SMILES)	IC50 [µM]
CCOCc1sc2c(c1C)c(=O)n(CCO)c(=O)n2CCc1ccccc1 [I-38, 6-(ethoxymethyl)-3-(2-hydroxyethyl)-5-methyl-1-(2-phenylethyl)-1H,2H,3H,4H-thieno[2,3-d]pyrimidine-2,4-dione]	> 50
CCOC(=O)c1sc2c(c1C)c(=O)n(C(C)(C)C(=O)O)c(=O)n2C[C@H](OC(C)C)c1ccc(I)cc1 [I-129, (R)-2-(6-(ethoxycarbonyl)-1-(2-(4-iodophenyl)-2-isopropoxyethyl)-5-methyl-2,4-dioxo-1,2-dihydrothieno[2,3-d]pyrimidin-3(4H)-yl)-2-methylpropanoic acid]	5 to 20
CCOC(=O)c1sc2c(c1C)c(=O)n(CCO)c(=O)n2CCc1nccs1 [I-49]	> 50
Cc1c(-c2ncco2)sc2c1c(=O)n(C(C)(C)C(=O)O)c(=O)n2C[C@H](OC(=O)N1CC(O)C1)c1ccccc1 [I-230, 2-[1-[(2R)-2-[(3-hydroxyazetidin-1-yl)carbonyloxy]-2-phenylethyl]-5-methyl-6-(1,3-oxazol-2-yl)-2,4-dioxo-1H,2H,3H,4H-thieno[2,3-d]pyrimidin-3-yl]-2-methylpropanoic acid]	< 5
CCOC(=O)c1sc2c(c1C)c(=O)n(C(C)(C)C(=O)O)c(=O)n2C[C@@H](OC(C)C)c1ccc(I)cc1 [I-126]	20 to 50
Cc1c(-c2ncco2)sc2c1c(=O)n(C(C)(C)C(=O)O)c(=O)n2CCC1CCCCC1 [I-176, 2-[1-(2-cyclohexylethyl)-5-methyl-6-(1,3-oxazol-2-yl)-2,4-dioxo-1H,2H,3H,4H-thieno[2,3-d]pyrimidin-3-yl]-2-methylpropanoic acid]	< 5
CCOC(=O)c1sc2c(c1C)c(=O)n(CCOCc1ccccc1)c(=O)n2CCc1ccccc1 [I-10, ethyl 3-[2-(benzyloxy)ethyl]-5-methyl-2,4-dioxo-1-(2-phenylethyl)-1H,2H,3H,4H-thieno[2,3-d]pyrimidine-6-carboxylate]	> 50
CCOC(=O)c1sc2c(c1C)c(=O)n(CCO)c(=O)n2CCc1c(F)cccc1F [I-24]	> 50
CCOC(=O)c1sc2c(c1C)c(=O)n(CC(=O)O)c(=O)n2CC(OC(C)=O)c1ccccc1 (stereo not shown) [I-85, 2-[1-[2-(acetyloxy)-2-phenylethyl]-6-(ethoxycarbonyl)-5-methyl-2,4-dioxo-1H,2H,3H,4H-thieno[2,3-d]pyrimidin-3-yl]acetic acid]	< 5
CCOC(=O)c1sc2c(c1C)c(=O)n(CC(=O)O)c(=O)n2Cc1cc2ccccc2[nH]1 [I-88, 2-[6-(ethoxycarbonyl)-1-(1H-indol-2-ylmethyl)-5-methyl-2,4-dioxo-1H,2H,3H,4H-thieno[2,3-d]pyrimidin-3-yl]acetic acid]	> 50
Cc1c(-c2ncco2)sc2c1c(=O)n(C(C)(C)C(=O)O)c(=O)n2C[C@@H](Oc1ccc(-n2ccnc2)cc1)c1ccccc1 [I-161, 2-[1-[(2S)-2-[4-(1H-Imidazol-1-yl)phenoxy]-2-phenylethyl]-5-methyl-6-(1,3-oxazol-2-yl)-2,4-dioxo-1H,2H,3H,4H-thieno[2,3-d]pyrimidin-3-yl]-2-methylpropanoic acid]	< 5
CCOC(=O)c1sc2c(c1C)c(=O)n(CCO)c(=O)n2CCc1ccc2ccccc2c1 [I-30, ethyl 3-(2-hydroxyethyl)-5-methyl-1-[2-(naphthalen-2-yl)ethyl]-2,4-dioxo-1H,2H,3H,4H-thieno[2,3-d]pyrimidine-6-carboxylate]	> 50

Results, then the compound that gave them:

IC50 [µM]	Structure (SMILES)
< 5	Cc1c(-c2ncc(Cl)o2)sc2c1c(=O)n(C(C)(C)C(=O)O)c(=O)n2C[C@H](OC(C)C)c1ccccc1 [I-156, 2-[6-(5-chloro-1,3-oxazol-2-yl)-5-methyl-2,4-dioxo-1-[(2R)-2-phenyl-2-(propan-2-yloxy)ethyl]-1H,2H,3H,4H-thieno[2,3-d]pyrimidin-3-yl]-2-methylpropanoic acid]
> 50	CCOC(=O)c1sc2c(c1C)c(=O)n(CCO)c(=O)n2CCC1CCCCC1 [I-28]
5 to 20	CCOC(=O)c1sc2c(c1C)c(=O)n(CC(=O)O)c(=O)n2CCc1ccc(I)cc1 [I-53, 2-[6-(ethoxycarbonyl)-1-[2-(4-iodophenyl)ethyl]-5-methyl-2,4-dioxo-1H,2H,3H,4H-thieno[2,3-d]pyrimidin-3-yl]acetic acid]
< 1	Cc1c(-c2ncco2)sc2c1c(=O)n(C(C)(C)C#N)c(=O)n2C[C@H](OC(C)C)c1ccccc1 [I-154, 2-methyl-2-[5-methyl-6-(1,3-oxazol-2-yl)-2,4-dioxo-1-[(2R)-2-phenyl-2-(propan-2-yloxy)ethyl]-1H,2H,3H,4H-thieno[2,3-d]pyrimidin-3-yl]propanenitrile]
< 5	CCOC(=O)c1sc2c(c1C)c(=O)n([C@H](C)C(=O)O)c(=O)n2CCc1ccccc1 [I-76, (2R)-2-[6-(ethoxycarbonyl)-5-methyl-2,4-dioxo-1-(2-phenylethyl)-1H,2H,3H,4H-thieno[2,3-d]pyrimidin-3-yl]propanoic acid]
5 to 20	CCOC(=O)c1sc2c(c1C)c(=O)n(C(C)(C)C(=O)O)c(=O)n2C[C@@H](O)c1ccccc1 [I-102, 2-[6-(ethoxycarbonyl)-1-[(2S)-2-hydroxy-2-phenylethyl]-5-methyl-2,4-dioxo-1H,2H,3H,4H-thieno[2,3-d]pyrimidin-3-yl]-2-methylpropanoic acid]
20 to 50	Cc1c(C(=O)OCCO)sc2c1c(=O)n(CCO)c(=O)n2CCc1ccccc1 [I-42, 2-hydroxyethyl 3-(2-hydroxyethyl)-5-methyl-2,4-dioxo-1-(2-phenylethyl)-1H,2H,3H,4H-thieno[2,3-d]pyrimidine-6-carboxylate]
5 to 20	CCOC(=O)c1sc2c(c1C)c(=O)n(CC(C)(C)O)c(=O)n2CCc1ccccc1 [I-79, ethyl 3-(2-hydroxy-2-methylpropyl)-5-methyl-2,4-dioxo-1-(2-phenylethyl)-1H,2H,3H,4H-thieno[2,3-d]pyrimidine-6-carboxylate]
< 5	CCOC(=O)c1sc2c(c1C)c(=O)n(CC(=O)O)c(=O)n2C[C@H](O)c1ccccc1 [I-78, 2-[6-(ethoxycarbonyl)-1-[(2R)-2-hydroxy-2-phenylethyl]-5-methyl-2,4-dioxo-1H,2H,3H,4H-thieno[2,3-d]pyrimidin-3-yl]acetic acid]
< 5	Cc1c(-c2ncco2)sc2c1c(=O)n(C(C)(C)C(=O)O)c(=O)n2CCc1ccccc1 [I-117, 2-methyl-2-[5-methyl-6-(1,3-oxazol-2-yl)-2,4-dioxo-1-(2-phenylethyl)-1H,2H,3H,34H-thieno[2,3-d]pyrimidin-3-yl]propanoic acid]
20 to 50	CCOC(=O)c1sc2c(c1C)c(=O)n(CCOC)c(=O)n2CCc1ccccc1 [I-6, ethyl 3-(2-methoxyethyl)-5-methyl-2,4-dioxo-1-(2-phenylethyl)-1H,2H,3H,4H-thieno[2,3-d]pyrimidine-6-carboxylate]
5 to 20	Cc1c(C2CCC2)sc2c1c(=O)n(C(C)(C)C(=O)O)c(=O)n2CCc1ccccc1 [I-125, 2-[6-cyclobutyl-5-methyl-2,4-dioxo-1-(2-phenylethyl)-1H,2H,3H,4H-thieno[2,3-d]pyrimidin-3-yl]-2-methylpropanoic acid]
5 to 20	Cc1c(-c2ncco2)sc2c1c(=O)n(C(C)(C)C(=O)O)c(=O)n2C[C@@H](Oc1ccc(F)cc1)c1ccccc1 [I-150, (S)-2-(1-(2-(4-fluorophenoxy)-2-phenylethyl)-5-methyl-6-(oxazol-2-yl)-2,4-dioxo-1,2-dihydrotheno[2,3-d]pyrimidin-3(4H)-yl)-2-methylpropanoic acid]
